Measured values published in patent EP0549040A1, “Methods of making 4" derivatives of 9-deoxo-8a-aza-8a-alkyl-8a-homoerythromycin A” (MERCK & CO. INC., priority 1991, dated 1993).
≈ marks a conversion by molar mass, not a printed value. Read-outs that look alike come from different tables or passages of the source.

Legend:
Test in all cases: liquid turbidimetric microtiter MIC determination in broth media
Type in all cases: cell-based
[1] = system: Escherichia coli MB 2884
From the text: (§1) The antibacterial activities of the compounds of Examples 8 and 10 against a panel of aerobic Gram positive and negative bacteria is shown in the following Table. The assay employs a liquid turbidimetric microtiter method for the determination of the minimum inhibitory concentration (MIC) in broth media. […] The MIC is generally not an absolute value but rather a concentration range that falls within a two-fold dilution limit. Generally twelve two-fold dilutions of the test compound are employed with the initial concentration set at 128 mcg/ml.

[2] = system: Enterobacter cloacae CL 4298
From the text: as §1

[3] = system: Enterococcus faecalis MB 5407
From the text: as §1

[4] = system: Staphylococcus aureus MB 2865
From the text: as §1

[5] = system: Staphylococcus epidermidis MB 5414
From the text: as §1

[6] = system: Klebsiella pneumoniae MB 4005
From the text: as §1

[7] = system: Haemophilus influenzae MB 5363
From the text: as §1

[8] = system: Streptococcus pneumoniae CL 2883
From the text: as §1

[9] = system: Streptococcus pyogenes MB 2874
From the text: as §1

[10] = system: Haemophilus influenzae AT 43163
From the text: as §1

[11] = system: Enterococcus faecium MB 5416; details: MB5416, Table I
From the text: as §1

[12] = system: Pseudomonas stutzeri MB 1231; details: Stutzerimonas stutzeri, MB1231, Table I
From the text: as §1

[13] = system: Steptococcus viridans CL 2943; details: Table I
From the text: as §1

[14] = system: Streptococcus agalactiae CL 1343; details: CL1343, Table I
From the text: as §1

[15] = system: Staphylococcus haemolyticus MB 5412; details: MB5412, Table I
From the text: as §1

[16] = system: Streptococcus pyogenes MB 54061; details: MB54061, Table I
From the text: as §1

[17] = system: Escherichia coli MB 4926; details: MB4926, Table I
From the text: as §1

[18] = MB2884, Table II, MIC, read-out: In vitro Activity
[19] = MB2884, Table I, read-out: MIC Values
[20] = MB5407, Table I, Enterococcus faecalis MB 5407, read-out: MIC Values
[21] = MB2865, Table I, Staphylococcus aureus MB 2865, read-out: MIC Values
[22] = MB5414, Table I, Staphylococcus epidermidis MB 5414, read-out: MIC Values
[23] = MB4005, Table I, Klebsiella pneumoniae MB 4005, read-out: MIC Values
[24] = CL2883, Table I, Streptococcus pneumoniae CL 2883, read-out: MIC Values
[25] = MB2874, Table I, Streptococcus pyogenes MB 2874, read-out: MIC Values
[26] = CL4298, Table II, MIC, Enterobacter cloacae CL 4298, read-out: In vitro Activity
[27] = MB5407, Table II, MIC, Enterococcus faecalis MB 5407, read-out: In vitro Activity
[28] = MB2865, Table II, MIC, Staphylococcus aureus MB 2865, read-out: In vitro Activity
[29] = MB5414, Table II, MIC, Staphylococcus epidermidis MB 5414, read-out: In vitro Activity
[30] = MB4005, Table II, MIC, Klebsiella pneumoniae MB 4005, read-out: In vitro Activity
[31] = MB5363, Table II, MIC, Haemophilus influenzae MB 5363, read-out: In vitro Activity
[32] = CL2883, Table II, MIC, Streptococcus pneumoniae CL 2883, read-out: In vitro Activity
[33] = MB2874, Table II, MIC, Streptococcus pyogenes MB 2874, read-out: In vitro Activity
[34] = AT43163, Table II, MIC, Haemophilus influenzae AT 43163, read-out: In vitro Activity

4''-epi-9-deoxo-8a-aza-8a-methyl-8a-homoerythromycin A [Example 15]
In vitro Activity ([1]; Table II, MIC): 1 µg/mL | In vitro Activity ([2]; Table II, MIC, Enterobacter cloacae CL 4298): 0.5 µg/mL | In vitro Activity ([3]; Table II, MIC, Enterococcus faecalis MB 5407): 1 µg/mL | In vitro Activity ([4]; Table II, MIC, Staphylococcus aureus MB 2865): 0.5 µg/mL | In vitro Activity ([5]; Table II, MIC, Staphylococcus epidermidis MB 5414): 0.25 µg/mL | In vitro Activity ([6]; Table II, MIC, Klebsiella pneumoniae MB 4005): 1 µg/mL | In vitro Activity ([7]; Table II, MIC, Haemophilus influenzae MB 5363): 0.5 µg/mL | In vitro Activity ([8]; Table II, MIC, Streptococcus pneumoniae CL 2883): ≦0.06 mcg/ml | In vitro Activity ([9]; Table II, MIC, Streptococcus pyogenes MB 2874): ≦0.06 mcg/ml | In vitro Activity ([10]; Table II, MIC, Haemophilus influenzae AT 43163): 0.5 µg/mL

CC[C@H]1OC(=O)[C@H](C)[C@@H](O[C@H]2C[C@@](C)(OC)[C@@H](O)[C@H](C)O2)[C@H](C)[C@@H](O[C@@H]2O[C@H](C)C[C@H](N(C)C)[C@H]2O)[C@](C)(O)C[C@@H](C)C(=O)[C@H](C)[C@@H](O)[C@]1(C)O [Erythromycin A, erythromycin A]
MIC [1, 18]: 16 µg/mL (≈ 21.8 µM) | MIC ([2]; Enterobacter cloacae, CL4298, read-out: In vitro Activity): 16 µg/mL (≈ 21.8 µM) | MIC ([3]; Enterococcus faecalis, MB5407, read-out: In vitro Activity): 1 µg/mL (≈ 1.36 µM) | MIC ([4]; Staphylococcus aureus, MB2865, read-out: In vitro Activity): 0.12 µg/mL (≈ 0.164 µM) | MIC ([5]; Staphylococcus epidermidis, MB5414, read-out: In vitro Activity): 0.12 µg/mL (≈ 0.164 µM) | MIC ([6]; Klebsiella pneumoniae, MB4005, read-out: In vitro Activity): 32 µg/mL (≈ 43.6 µM) | MIC ([7]; Haemophilus influenzae, MB5363, read-out: In vitro Activity): 2 µg/mL (≈ 2.73 µM) | MIC ([8]; Streptococcus pneumoniae, CL2883, read-out: In vitro Activity): ≤ 0.06 µg/mL | MIC ([9]; Streptococcus pyogenes, MB2874, read-out: In vitro Activity): ≤ 0.06 µg/mL | MIC ([10]; Haemophilus influenzae, AT43163, read-out: In vitro Activity): 2 µg/mL (≈ 2.73 µM)

CC[C@H]1OC(=O)[C@H](C)[C@@H](O[C@H]2C[C@@](C)(OC)[C@@H](O)[C@H](C)O2)[C@H](C)[C@@H](O[C@@H]2O[C@H](C)C[C@H](N(C)C)[C@H]2O)[C@](C)(O)C[C@@H](C)NC[C@H](C)[C@@H](O)[C@]1(C)O [Example 9, 9-Deoxo-8a-aza-8a-homoerythromycin A]
MIC [1, 19]: 4 µg/mL (≈ 5.44 µM) | MIC [3, 20]: 8 µg/mL (≈ 10.9 µM) | MIC [11]: 0.25 µg/mL (≈ 0.34 µM) | MIC [12]: ≤ 0.06 µg/mL | MIC [4, 21]: 0.5 µg/mL (≈ 0.68 µM) | MIC [5, 22]: 1 µg/mL (≈ 1.36 µM) | MIC [13]: 8 µg/mL (≈ 10.9 µM) | MIC [6, 23]: 8 µg/mL (≈ 10.9 µM) | MIC [14]: ≤ 0.06 µg/mL | MIC [8, 24]: ≤ 0.06 µg/mL | MIC [15]: 0.5 µg/mL (≈ 0.68 µM) | MIC [16]: 128 µg/mL (≈ 174 µM) | MIC [17]: 2 µg/mL (≈ 2.72 µM) | MIC [9, 25]: ≤ 0.06 µg/mL

CC[C@H]1OC(=O)[C@H](C)[C@@H](O[C@H]2C[C@@](C)(OC)[C@@H](O)[C@H](C)O2)[C@H](C)[C@@H](O[C@@H]2O[C@H](C)C[C@H](N(C)C)[C@H]2O)[C@](C)(O)C[C@@H](C)N(C)C[C@H](C)[C@@H](O)[C@]1(C)O [Example 10, 9-Deoxo-8a-aza-8a-methyl-8a-homoerythromycin A]
MIC [1, 19]: 1 µg/mL (≈ 1.34 µM) | MIC [3, 20]: 4 µg/mL (≈ 5.34 µM) | MIC [11]: 0.25 µg/mL (≈ 0.334 µM) | MIC [12]: ≤ 0.06 µg/mL | MIC [4, 21]: 0.5 µg/mL (≈ 0.668 µM) | MIC [5, 22]: 1 µg/mL (≈ 1.34 µM) | MIC [13]: 1 µg/mL (≈ 1.34 µM) | MIC [6, 23]: 2 µg/mL (≈ 2.67 µM) | MIC [14]: ≤ 0.06 µg/mL | MIC [8, 24]: ≤ 0.06 µg/mL | MIC [15]: 0.5 µg/mL (≈ 0.668 µM) | MIC [16]: 128 µg/mL (≈ 171 µM) | MIC [17]: 0.06 µg/mL (≈ 0.0801 µM) | MIC [9, 25]: ≤ 0.06 µg/mL

CC[C@H]1OC(=O)[C@H](C)[C@@H](O[C@H]2C[C@@](C)(OC)C(N)[C@H](C)O2)[C@H](C)[C@@H](O[C@@H]2O[C@H](C)C[C@H](N(C)C)[C@H]2O)[C@](C)(O)C[C@@H](C)N(C)C[C@H](C)[C@@H](O)[C@]1(C)O (stereo partly drawn) [Example 17, 4''-Deoxy-4''-amino-9-deoxo-8a-aza-8a-methyl-8a-homoerythromycin A]
MIC [1, 18]: 0.12 µg/mL (≈ 0.16 µM) | MIC [2, 26]: ≤ 0.06 µg/mL | MIC [3, 27]: 4 µg/mL (≈ 5.35 µM) | MIC [4, 28]: 1 µg/mL (≈ 1.34 µM) | MIC [5, 29]: 0.5 µg/mL (≈ 0.668 µM) | MIC [6, 30]: 0.12 µg/mL (≈ 0.16 µM) | MIC [7, 31]: 0.5 µg/mL (≈ 0.668 µM) | MIC [8, 32]: ≤ 0.06 µg/mL | MIC [9, 33]: ≤ 0.06 µg/mL | MIC [10, 34]: 0.25 µg/mL (≈ 0.334 µM)

CC[C@H]1OC(=O)[C@H](C)[C@@H](O[C@H]2C[C@@](C)(OC)[C@@H](N)[C@H](C)O2)[C@H](C)[C@@H](O[C@@H]2O[C@H](C)C[C@H](N(C)C)[C@H]2O)[C@](C)(O)C[C@@H](C)N(C)C[C@H](C)[C@@H](O)[C@]1(C)O [Example 19, 4''-Deoxy-4''-(S) - amino-9-deoxo-8a-aza-8a-methyl-8a-homoerythromycin A]
MIC [1, 18]: 0.12 µg/mL (≈ 0.16 µM) | MIC [2, 26]: ≤ 0.06 µg/mL | MIC [3, 27]: 2 µg/mL (≈ 2.67 µM) | MIC [4, 28]: 1 µg/mL (≈ 1.34 µM) | MIC [5, 29]: 0.51 µg/mL (≈ 0.682 µM) | MIC [6, 30]: 0.12 µg/mL (≈ 0.16 µM) | MIC [7, 31]: 0.25 µg/mL (≈ 0.334 µM) | MIC [8, 32]: ≤ 0.06 µg/mL | MIC [9, 33]: ≤ 0.06 µg/mL | MIC [10, 34]: 0.25 µg/mL (≈ 0.334 µM)

CC[C@H]1OC(=O)[C@H](C)[C@@H](O[C@H]2C[C@@](C)(OC)[C@H](N)[C@H](C)O2)[C@H](C)[C@@H](O[C@@H]2O[C@H](C)C[C@H](N(C)C)[C@H]2O)[C@](C)(O)C[C@@H](C)N(C)C[C@H](C)[C@@H](O)[C@]1(C)O [Example 20, 4''-Deoxy-4''-(R) - amino-9-deoxo-8a-aza-8a-methyl-8a-homoerythromycin A]
MIC [1, 18]: 0.25 µg/mL (≈ 0.334 µM) | MIC [2, 26]: 0.12 µg/mL (≈ 0.16 µM) | MIC [3, 27]: 2 µg/mL (≈ 2.67 µM) | MIC [4, 28]: 1 µg/mL (≈ 1.34 µM) | MIC [5, 29]: 0.5 µg/mL (≈ 0.668 µM) | MIC [6, 30]: 0.25 µg/mL (≈ 0.334 µM) | MIC [7, 31]: 0.5 µg/mL (≈ 0.668 µM) | MIC [8, 32]: ≤ 0.06 µg/mL | MIC [9, 33]: ≤ 0.06 µg/mL | MIC [10, 34]: 0.25 µg/mL (≈ 0.334 µM)
